Consider 46 molecules from PubChem BioAssay AID651759 (The Scripps Research Institute Molecular Screening Center, 2012).

Values joined by “and” are separate entries in the source; they are usually repeats but may differ in a detail not shown here. Identical values can stand only once. Active and inactive are the calls of the source. No rule for the calls is given here.

The target in this assay is Perilipin-5 (Homo sapiens) + 1-acylglycerol-3-phosphate O-acyltransferase ABHD5 (Homo sapiens) (UniProt Q00G26+Q8WTS1). The assay can be described thus: blockers of ABHD5 binding to perilipin-5 – cell lysate, luminescence, proteins expressed in HEK293T, late-stage follow-up (AID 651759). Particulars: ABHD5-PLIN5 interaction.
Chain of Perilipin-5 (Homo sapiens) + 1-acylglycerol-3-phosphate O-acyltransferase ABHD5 (Homo sapiens) (Q00G26 whole entry, looked up): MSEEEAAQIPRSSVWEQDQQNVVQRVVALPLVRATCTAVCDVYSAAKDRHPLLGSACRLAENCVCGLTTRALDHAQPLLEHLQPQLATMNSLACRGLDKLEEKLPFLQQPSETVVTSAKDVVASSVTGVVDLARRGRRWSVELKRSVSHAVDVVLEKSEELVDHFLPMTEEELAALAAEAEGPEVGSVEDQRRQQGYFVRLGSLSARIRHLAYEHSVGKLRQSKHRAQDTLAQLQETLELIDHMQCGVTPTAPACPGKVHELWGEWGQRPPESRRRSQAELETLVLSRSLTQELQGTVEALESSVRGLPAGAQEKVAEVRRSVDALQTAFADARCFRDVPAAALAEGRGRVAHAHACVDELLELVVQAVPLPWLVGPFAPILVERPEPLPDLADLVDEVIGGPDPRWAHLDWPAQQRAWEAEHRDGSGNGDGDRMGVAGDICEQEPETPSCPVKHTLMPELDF
Chain of Perilipin-5 (Homo sapiens) + 1-acylglycerol-3-phosphate O-acyltransferase ABHD5 (Homo sapiens) (Q8WTS1 whole entry, looked up): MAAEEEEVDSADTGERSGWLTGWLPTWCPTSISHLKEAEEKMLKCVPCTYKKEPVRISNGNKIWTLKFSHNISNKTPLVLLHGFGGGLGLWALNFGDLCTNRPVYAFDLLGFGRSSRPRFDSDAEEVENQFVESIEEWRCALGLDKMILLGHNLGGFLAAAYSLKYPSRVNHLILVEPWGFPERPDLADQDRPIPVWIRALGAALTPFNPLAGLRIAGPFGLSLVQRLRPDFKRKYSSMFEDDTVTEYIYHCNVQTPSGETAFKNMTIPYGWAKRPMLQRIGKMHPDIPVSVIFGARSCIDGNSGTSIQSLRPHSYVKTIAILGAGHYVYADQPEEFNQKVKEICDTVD
What is called IC50 is the midpoint of a concentration-inhibition curve. Regarding `Cc1ccc2c(CC(=O)N3CCN(S(=O)(=O)c4ccc5c(c4)OCCO5)CC3)coc2c1`, the IC50 is 2.97 µM and 5.73 µM.

In the case of `CC1Sc2ccc(S(=O)(=O)N3CCC(C(=O)NCc4ccc(Cl)cc4)CC3)cc2NC1=O` (stereo unspecified), the IC50 was 8.86 µM.

`O=C(C[n+]1cccc(CNC(=O)c2ccc(OC(F)F)cc2)c1)Nc1cccc(C(F)(F)F)c1`: the IC50 was > 39.8 µM (inactive).

As for `CC(=O)Oc1ccc(C23c4ccccc4C2(OC(C)=O)c2cc(OC(C)=O)ccc23)cc1` (stereo unspecified), the IC50 was > 39.8 µM (inactive).

As for `CCCNC(=O)Nc1ccc2c(c1)N(C)C(=O)c1ccccc1S2`, the 50% inhibitory concentration (IC50) is 5.58 µM.

In the case of `COc1cc2c(cc1OC)C(C)N(CCc1ccc(Cl)cc1)CC2` (stereo unspecified), the 50% inhibitory concentration (IC50) is 9.34 µM.

Turning to `COc1ccccc1-c1cc(C(=O)NC2CCN(C)CC2)c2ccc(Cl)c(C)c2n1`, the IC50 is > 13.3 µM (inactive).

On to `Cc1cc(C)c(NC(=O)CN2CCN3CCCC3C2)c(C)c1` (stereo unspecified), for which the IC50 is 7.06 µM.

On to `CC(=O)Nc1ccc(S(=O)(=O)N2c3ccc(F)cc3CCC2C)cc1` (stereo unspecified), for which the IC50 entry is “inactive”.

As to `CCCCNC(=O)Nc1ccc2c(c1)N(C)C(=O)c1ccccc1S2`, the IC50 was 3.12 µM.

For `Cc1cc(C)c2nc(NNC(=O)c3ccc(S(=O)(=O)N4CCCC(C)C4)cc3)sc2c1` (stereo unspecified), the half-inhibitory concentration (IC50) was 3.89 µM.

In the case of `CCCCOC(=O)Nc1cc(C(=O)OC)ccc1C(=O)OC`, the half-maximal inhibitory concentration (IC50) is 3.7 µM.

As to `CCOc1cc(N)c(Cl)cc1C(=O)NCC1CN(Cc2ccc(F)cc2)CCO1` (stereo unspecified), the half-inhibitory concentration (IC50) is 1.29 µM.

Take `NC(=NCCCCCCN=C(N)/N=C(\N)Nc1ccc(Cl)cc1)/N=C(\N)Nc1ccc(Cl)cc1`: the half-maximal inhibitory concentration (IC50) is 6.22 µM and 6.86 µM.

In the case of `Cc1ccc2nc3cc([N+](=O)[O-])cc([N+](=O)[O-])c3cc2c1`, the IC50 is 1.44 µM.

As to `C=C[C@]1(C)C[C@@H](OC(=O)CSCCN(CC)CC)[C@]2(C)C(C)CC[C@]3(CCC(=O)[C@H]32)[C@@H](C)[C@@H]1O` (stereo partly specified), the IC50 is 4.45 µM.

In the case of `CN(C)CCN(Cc1ccco1)c1ccccn1`, the IC50 is > 39.8 µM (inactive).

`O=C(/C(=C/O)N=Nc1ccc(Cl)cc1)c1ccncc1`: the 50% inhibitory concentration (IC50) was 6.19 µM.

For `FC(F)(F)c1cccc(NC(=S)N(CCCN2CCCC2)Cc2cccn2Cc2ccc(Cl)cc2)c1`, the IC50 entry is “inactive”.

With `CC(=O)Cc1cc(O)c2ccccc2c1OC(=O)c1ccccc1`, the IC50 was 3.56 µM.

For `COc1ccc(C)c2sc(N(CCN(C)C)C(=O)/C=C/c3cccs3)nc12`, the IC50 result is “inactive”.

`CC1CCN(S(=O)(=O)c2ccc(NC(=O)Cc3ccccc3)cc2)CC1`: the IC50 is 7.89 µM.

With `CCN(CC)CCOCCOC(=O)C1(c2ccccc2)CCCC1`, the 50% inhibitory concentration (IC50) was 1.26 µM.

In the case of `O=c1[nH]c(C2CCN(S(=O)(=O)c3ccc(S(=O)(=O)NC4CC4)cc3)CC2)nc2c1nnn2Cc1ccc(F)cc1`, the IC50 is 1.33 µM.

As to `COc1cc(C)c2sc3ccccc3c(=O)c2c1NCCN(C)C`, the IC50 is > 39.8 µM (inactive).

With `COc1cc(OC)cc(C(=O)NC(=S)N(Cc2ccccc2)C(C)C)c1`, the IC50 was 2.15 µM.

With `CCN(CC)CCC(C)OC(c1ccccc1)c1ccccc1` (stereo unspecified), the IC50 was 1.38 µM.

As for `Cc1nc2c(o1)CCc1ccccc1C2N1CCN(C)CC1` (stereo unspecified), the half-maximal inhibitory concentration (IC50) is 2.25 µM.

Take `CC(C)c1ccc(N2C=Nc3ccc(C(C)C)cc3C2)cc1`: the concentration for half-maximal inhibition (IC50) is 1 µM.

With `CCOC(=O)c1c(NC(=O)/C=C/C(=O)O)sc(C)c1-c1ccc(C(C)(C)C)cc1`, the IC50 is 4.5 µM.

As for `CN1CCC(=C2c3ccccc3CC(=O)c3sccc32)CC1`, the IC50 is > 39.8 µM (inactive).

As to `CCOC(=O)c1c(NC(C)=O)sc2c1CCC(C=O)=C2Sc1ccccc1`, the 50% inhibitory concentration (IC50) is 2.25 µM.

With `CC1=CC(C)(C)Nc2ccc(OC(=O)C(C)N3C(=O)c4ccccc4C3=O)cc21` (stereo unspecified), the IC50 was 4.25 µM.

`CC1CCN(S(=O)(=O)c2ccc(NC(=O)Cc3cccs3)cc2)CC1`: the IC50 was 9 µM.

As for `Cc1cc(C)c(NC(=O)C[N+](C)(C)CC(O)COc2cccc3ccccc23)c(C)c1` (stereo unspecified), the IC50 is 9.14 µM.

Turning to `COCCN(CCOC)c1nc(N)c2c(N)nc3c(c2c1C#N)CC(=O)N3Cc1ccc(Cl)cc1`, the IC50 is > 39.8 µM (inactive).

As to `CN(C)CCCN(C(=O)CCc1ccccc1)c1nc2ccc(Br)cc2s1`, the IC50 entry was “inactive”.

For the molecule `CC(=O)Cc1cc(O)c2ccccc2c1OC(=O)c1ccc(Br)cc1`, the IC50 is 4.75 µM.

With `COc1ccc(NC(=S)N(CCCN2CCCC2)Cc2cccn2Cc2ccc(Cl)cc2)cc1Cl`, the IC50 entry was “inactive”.

On to `CCN(CC)CCN(CC(=O)Nc1c(C)cc(C)cc1C)C(=O)c1ccccc1`, for which the IC50 is 2.85 µM.

For the molecule `CC(CCc1ccco1)NC(=O)CCc1nnc2ccc(NCc3ccccc3Cl)nn12` (stereo unspecified), the IC50 is 2.89 µM.

For `CCN(CC)CCOc1ccc(/C(=C(/Cl)c2ccccc2)c2ccccc2)cc1`, the concentration for half-maximal inhibition (IC50) is 1.32 µM.

For `CN(C)CCCN(C(=O)CCc1ccccc1)c1nc2ccc(Cl)cc2s1`, the IC50 result is “inactive”.

As for `CCN(CC)CCNC(=O)c1ccc(NC(=O)c2cn(-c3ccccc3)nc2-c2cccs2)cc1`, the IC50 result is “inactive”.

Turning to `O=c1[nH]c(C2CCN(S(=O)(=O)c3ccc(F)cc3)CC2)nc2c1nnn2Cc1ccc2c(c1)OCCO2`, the IC50 result was “inactive”.

As to `CN(C)CCOC1(Cc2ccc(F)cc2)CCC(C(C)(C)C)CC1` (stereo unspecified), the IC50 is > 39.8 µM (inactive).
